From patent publication EP4775582A1, “MACROCYCLIC COMPOUND AND ANTIBODY-DRUG CONJUGATE THEREOF” (Genfleet Therapeutics (Shanghai) Inc., priority 2023, dated 2025)
Like-named read-outs stand apart in the source and are kept apart here.

How the values were obtained:
NCI-H441 cells = test: 3D cell proliferation assay (CellTiter Glo-3D), NCI-H441; assay type: cell-based, human; settings: NCI-H441 cells (KRAS G12V), 2% FBS, 5 days, read-out: H441 AP IC50
Outline: (§1)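 IC50 values come from four-parameter fits of inhibition rate against log compound concentration, using CellTiter-Glo luminescence read after 5 days' exposure. AsPC-1 and NCI-H441 were plated at 800 cells per well in low-serum (2% FBS) medium. Compound was dosed the day after seeding, with incubation at 37 °C, 5% CO2.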

KRAS G12V-cRAF = KRAS G12V-cRAF (Homo sapiens, UniProt P01116+P62937, G12V); test: Assay for binding of KRAS to cRAF (HTRF, with Cyclophilin A), KRAS G12V
Procedure: (§3) The plate was centrifuged at 1000 rpm for 1 min and then incubated in the thermostatic incubator at 20 °C for 30 min. […] The plate was centrifuged at 1000 rpm for 1 min and then incubated in the thermostatic incubator at 20 °C for 60 min. […] The working solution was added to the aforementioned assay plate at 5 µL/well. The plate was centrifuged at 1000 rpm for 1 min and then incubated in the thermostatic incubator at 20 °C for 60 min.

H441 p-ERK = test: Cell p-ERK assay (HTRF), NCI-H441 cells; assay type: cell-based, human; settings: NCI-H441 cells (KRAS G12V), 3 h incubation
Outline: (§2)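 Phospho-ERK (T202/Y204) was measured by HTRF in lysates after 3 h compound treatment at 37 °C. Cells had been plated the previous day at 20000 per well for NCI-H441 and 10000 per well for AsPC-1. Four-parameter dose-response fitting of % inhibition gave IC50 values.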

KRAS WT-cRAF = KRAS WT-cRAF (Homo sapiens, UniProt P01116+P62937); test: Assay for binding of KRAS to cRAF (HTRF, with Cyclophilin A), KRAS WT
Procedure: as §3

AsPC-1 p-ERK = test: Cell p-ERK assay (HTRF), AsPC-1 cells; assay type: cell-based, human
Outline: as §2

AsPC-1 cells = test: 3D cell proliferation assay (CellTiter Glo-3D), AsPC-1; assay type: cell-based, human
Outline: as §1

[1] = KRAS G12V-cRAF binding assay(nM), GPPNP-KRAS G12V, IC50 values
[2] = KRAS WT-cRAF binding assay(nM), GPPNP-KRAS WT, IC50 values
[3] = Homo sapiens, ASPC1, AsPC-1 cells (KRAS G12D), 3 h incubation, read-out: AsPC-1 p-ERK IC50
[4] = Homo sapiens, ASPC1, 120 h, AsPC-1 cells (KRAS G12D), 3D, 2% FBS, 5 days, read-out: AsPC-1 AP IC50
[5] = read-out: KRAS G12V-cRAF binding assay, GPPNP-KRAS G12V, IC50 values
[6] = read-out: KRAS WT-cRAF binding assay, GPPNP-KRAS WT, IC50 values

Chain of KRAS G12V-cRAF (P01116 1-188 isoform P01116-2 G12V): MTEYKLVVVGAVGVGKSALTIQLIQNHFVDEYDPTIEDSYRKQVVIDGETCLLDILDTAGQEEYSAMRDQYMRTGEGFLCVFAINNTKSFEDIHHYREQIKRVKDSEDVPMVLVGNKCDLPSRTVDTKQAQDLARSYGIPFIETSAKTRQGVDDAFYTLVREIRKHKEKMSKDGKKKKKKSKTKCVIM
Chain of KRAS G12V-cRAF (P62937 whole entry): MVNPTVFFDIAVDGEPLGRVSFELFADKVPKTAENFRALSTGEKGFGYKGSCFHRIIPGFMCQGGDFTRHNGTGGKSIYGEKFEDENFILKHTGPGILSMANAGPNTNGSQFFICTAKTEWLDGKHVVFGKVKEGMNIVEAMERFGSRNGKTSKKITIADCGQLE
Chain of KRAS WT-cRAF (P01116 1-188 isoform P01116-2): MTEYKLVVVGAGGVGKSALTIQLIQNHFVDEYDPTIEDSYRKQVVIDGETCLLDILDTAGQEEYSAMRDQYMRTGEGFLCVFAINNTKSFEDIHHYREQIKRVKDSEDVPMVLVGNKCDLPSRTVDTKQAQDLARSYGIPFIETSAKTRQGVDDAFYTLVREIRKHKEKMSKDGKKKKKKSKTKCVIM
Chain of KRAS WT-cRAF (P62937 whole entry): as the sequence (P62937 whole entry) above

Row | SMILES | IC50 (NCI-H441 cells; Homo sapiens, 120 h) [nM] | IC50 (KRAS G12V-cRAF; [1]) [nM] | IC50 (H441 p-ERK; Homo sapiens) [nM] | IC50 (KRAS WT-cRAF; [2]) [nM] | IC50 (AsPC-1 p-ERK; [3]) [nM] | IC50 (AsPC-1 cells; [4]) [nM] | IC50 (KRAS G12V-cRAF; [5]) [nM] | IC50 (KRAS WT-cRAF; [6]) [nM] | IC50 (AsPC-1 p-ERK; Homo sapiens, ASPC1, 3 h, read-out: AsPC-1 p-ERK IC50(nM)) [nM] | IC50 (AsPC-1 cells; Homo sapiens, ASPC1, 120 h, read-out: AsPC-1 AP IC50(nM)) [nM] | IC50 (NCI-H441 cells) [nM] | IC50 (H441 p-ERK) [nM] | IC50 (AsPC-1 p-ERK; AsPC-1 cells (KRAS G12D), 3 h incubation, read-out: AsPC-1 p-ERK IC50) [nM] | IC50 (AsPC-1 cells; AsPC-1 cells (KRAS G12D), 3D, 2% FBS, 5 days, read-out: AsPC-1 AP IC50) [nM]
1 | COCCn1c(-c2cc(C#CCN3CCC(C#N)(CO)CC3)cnc2C(C)OC)c2c3cc(ccc31)-c1csc(n1)CC(NC(=O)C1C(C)C1C)C(=O)N1CCCC(N1)C(=O)OCC(C)(C)C2 [Compound Z29, (1r,2R,3S)-N-((6^3S,4S,Z)-1^2-(5-(3-(4-cyano-4-(hydroxymethyl)piperidin-1-yl)prop-1-yn-1-yl)-2-((S)-1-methoxyethyl)pyridin-3-yl)-1^1-(methoxyethyl)-10,10-dimethyl-5,7-dioxo-6^1,6^2,6^3,6^4,6^5,6^6-hexahydro-1^1H-8-oxa-2(4,2)-thiazola-1(5,3)-indola-6(1,3)-pyridazinacycloundecaphane-4-yl)-2,3-dimethylcyclopropane-1-carboxamide] | 0.21 | 18.5 | 0.38 | 37 | 0.07 | 0.09 |  |  |  |  |  |  |  | 
2 | CCn1c(-c2cc(C#CCN3CCC(C#N)(CN)CC3)c[n+]([O-])c2[C@H](C)OC)c2c3cc(ccc31)-c1csc(n1)C[C@H](NC(=O)[C@H]1[C@H](C)[C@@H]1C)C(=O)N1CCC[C@H](N1)C(=O)OCC(C)(C)C2 (atropisomer, axis not shown; (Ra)) [Compound Z57, 5-(3-(4-(aminomethyl)-4-cyanopiperidin-1-yl)prop-1-yn-1-yl)-(Ra)-3-((6^3S,4S,Z)-4-((1r,2R,3S)-2,3-dimethylcyclopropane-1-carboxamido)-1^1-ethyl-10,10-dimethyl-5,7-dioxo-6^1,6^2,6^3,6^4,6^5,6^6-hexahydro-1^1H-8-oxa-2(4,2)-thiazola-1(5,3)-indola-6(1,3)-pyridazinacycloundecaphane-1^2-yl)-2-((S)-1-methoxyethyl)pyridine 1-oxide] | 1.34 |  | 1.47 |  | 0.81 | 0.47 | 6.3 | 38.8 |  |  |  |  |  | 
3 | COCCn1c(-c2cc(C#CCN3CCN(C(=O)CO)CC3)cnc2C(C)OC)c2c3cc(ccc31)-c1csc(n1)CC(NC(=O)C1C3COCC31)C(=O)N1CCCC(N1)C(=O)OCC(C)(C)C2 (atropisomer, axis not shown; (Ra)) [Compound Z31-1, (1R,5S,6r)-N-((6^3S,4S,Z)-(Ra)-1^2-(5-(3-(4-(2-hydroxyacetyl)piperazin-1-yl)prop-1-yn-1-yl)-2-((S)-1-methoxyethyl)pyridin-3-yl)-1^1-(methoxyethyl)-10,10-dimethyl-5,7-dioxo-6^1,6^2,6^3,6^4,6^5,6^6-hexahydro-1^1H-8-oxa-2(4,2)-thiazola-1(5,3)-indola-6(1,3)-pyridazinacycloundecaphane-4-yl)-3-oxabicyclo[3.1.0]hexane-6-carboxamide] | 1.07 | 14.7 | 0.92 | 75 | 2.65 | 2.09 |  |  |  |  |  |  |  | 
4 | CCn1c(-c2cc(C#CCN3CCS(=O)(=O)CC3)cnc2[C@H](C)OC)c2c3cc(ccc31)-c1csc(n1)[C@@H](N)[C@H](NC(=O)[C@H]1[C@H](C)[C@@H]1C)C(=O)N1CCC[C@H](N1)C(=O)OCC(C)(C)C2 (atropisomer, axis not shown; (Ra)) [Compound Z65, (1r,2R,3S)-N-((6^3S,3S,4S,Z)-3-amino-(Ra)-1^2-(5-(3-(1,1-dioxidothiomorpholino)prop-1-yn-1-yl)-2-((S)-1-methoxyethyl)pyridin-3-yl)-1^1-ethyl-10,10-dimethyl-5,7-dioxo-6^1,6^2,6^3,6^4,6^5,6^6-hexahydro-11H-8-oxa-2(4,2)-thiazola-1(5,3)-indola-6(1,3)-pyridazinacycloundecaphane-4-yl)-2,3-dimethylcyclopropane-1-carboxamide] | 0.25 |  | 0.14 |  |  |  | 5 | 22.9 | 0.06 | 0.15 |  |  |  | 
5 | CCn1c(-c2cc(C#CCN3CCS(=O)(=O)CC3)cnc2C(C)OC)c2c3cc(ccc31)-c1csc(n1)CC(NC(=O)C1C(C)C1C(=O)NCCO)C(=O)N1CCCC(N1)C(=O)OCC(C)(C)C2 (atropisomer, axis not shown; (Ra)) [Compound Z13-1, (1R,2R,3S)-N^1-((6^3S,4S,Z)-(Ra)-1^2-(5-(3-(1,1-dioxidothiomorpholino)prop-1-yn-1-yl)-2-((S)-1-methoxyethyl)pyridin-3-yl)-1^1-ethyl-10,10-dimethyl-5,7-dioxo-6^1,6^2,6^3,6^4,6^5,6^6-hexahydro-1^1H-8-oxa-2(4,2)-thiazola-1(5,3)-indola-6(1,3)-pyridazinacycloundecaphane-4-yl)-N^2-(2-hydroxyethyl)-3-methylcyclopropane-1,2-dicarboxamide] | 3.36 | 5.2 |  | 21.8 |  | 3.7 |  |  |  |  |  |  |  | 
6 | CCn1c(-c2cc(C#CCN3CCS(=O)(=O)CC3)cnc2C(C)OC)c2c3cc(ccc31)-c1cc(N)cc(c1)CC(NC(=O)C1C(C)C1C)C(=O)N1CCCC(N1)C(=O)OCC(C)(C)C2 (atropisomer, axis not shown; (Ra)) [Compound Z22, (1r,2R,3S)-N-((6^3S,4S)-2^5-amino-(Ra)-1^2-(5-(3-(1,1-dioxidothiomorpholino)prop-1-yn-1-yl)-2-((S)-1-methoxyethyl)pyridin-3-yl)-1^1-ethyl-10,10-dimethyl-5,7-dioxo-6^1,6^2,6^3,6^4,6^5,6^6-hexahydro-1^1H-8-oxa-1(5,3)-indola-6(1,3)-pyridazina-2(1,3)-benzenacycloundecaphane-4-yl)-2,3-dimethylcyclopropane-1-carboxamide] | 2.31 | 18.6 | 1.09 | 47.5 | 1.54 | 8.37 |  |  |  |  |  |  |  | 
7 | CCn1c(-c2cc(C#CCN3CCC(C#N)(CN)CC3)c[n+]([O-])c2[C@H](C)OC)c2c3cc(ccc31)-c1csc(n1)C[C@H](NC(=O)[C@H]1[C@@H]3COC[C@@H]31)C(=O)N1CCC[C@H](N1)C(=O)OCC(C)(C)C2 (atropisomer, axis not shown; (Ra)) [Compound Z64-1, (Ra)-3-((6^3S,4S,Z)-4-((1R,5S,6r)-3-oxabicyclo[3.1.0]hexane-6-carboxamido)-1^1-ethyl-10,10-dimethyl-5,7-dioxo-6^1,6^2,6^3,6^4,6^5,6^6-hexahydro-1^1H-8-oxa-2(4,2)-thiazola-1(5,3)-indola-6(1,3)-pyridazinacycloundecaphane-1^2-yl)-5-(3-(4-(aminomethyl)-4-cyanopiperidin-1-yl)prop-1-yn-1-yl)-2-((S)-1-methoxyethyl)pyridine 1-oxide] |  |  |  |  |  |  | 4.1 | 31.2 |  |  | 5.1 | 5.07 | 9.07 | 3.77
8 | CCn1c(-c2cc(C#CCN3CCS(=O)(=O)CC3)cnc2C(C)O)c2c3cc(ccc31)-c1csc(n1)CC(NC(=O)C1C(C)C1C)C(=O)N1CCCC(N1)C(=O)OCC(C)(C)C2 (atropisomer, axis not shown; (Ra)) [Compound Z60, (1r,2R,3S)-N-((6^3S,4S,Z)-(Ra)-1^2-(5-(3-(1,1-dioxidothiomorpholino)prop-1-yn-1-yl)-2-((S)-1-hydroxyethyl)pyridin-3-yl)-1^1-ethyl-10,10-dimethyl-5,7-dioxo-6^1,6^2,6^3,6^4,6^5,6^6-hexahydro-1^1H-8-oxa-2(4,2)-thiazola-1(5,3)-indola-6(1,3)-pyridazinacycloundecaphane-4-yl)-2,3-dimethylcyclopropane-1-carboxamide] | 0.16 | 15.2 | 0.15 | 15.3 | 0.28 | 0.32 |  |  |  |  |  |  |  | 
